Measured values published in patent publication US20230085307A1, “PYRIDAZINONE COMPOUND AND HERBICIDE” (NISSAN CHEMICAL CORPORATION, priority 2019, published 2023).

Key:
late watergrass = experiment: Test Example 1: herbicidal activity, application before weed generation under submerged conditions (Table 16, symbol A); type: in vivo, late watergrass (Echinochloa oryzicola); details: 320 g/ha applied herbicide
How it was run: (§1)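 Submerged Wagner pots (alluvial soil, 4 cm water) sown with weed seeds and planted with 2.5-leaf rice seedlings; emulsifiable concentrate diluted in water applied to water surface on sowing day. Held in greenhouse at 25-30 °C; injury scored 0-5 by herbicidal rate after three weeks.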

Japanese bulrush = experiment: Test Example 1: herbicidal activity, application before weed generation under submerged conditions (Table 16, symbol B); type: in vivo, Japanese bulrush (Schoenoplectus juncoides); details: 320 g/ha applied herbicide
How it was run: as §1

oval-leafed pondweed = experiment: Test Example 1: herbicidal activity, application before weed generation under submerged conditions (Table 16, symbol C); type: in vivo, oval-leafed pondweed (Monochoria vaginalis); details: 320 g/ha applied herbicide
How it was run: as §1

barnyard grass [1] = experiment: Test Example 3: herbicidal effect by foliage application, Wagner pot (Table 18, symbol H); type: in vivo, barnyard grass (Echinochloa crus-galli); details: 320 g/ha
How it was run: (§2)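 Plants were sown in alluvial soil held under 0.1–0.5 cm standing water and grown 14 days in a greenhouse at 25–30 °C. An emulsifiable formulation, water-diluted to the set dose, was then sprayed onto the foliage, and effects were scored three weeks later using previously defined criteria.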

Chinese sprangletop = experiment: Test Example 3: herbicidal effect by foliage application, Wagner pot (Table 18, symbol D); type: in vivo, chinese sprangletop (Leptochloa chinensis); details: 320 g/ha
How it was run: as §2

rice flat sedge = experiment: Test Example 3: herbicidal effect by foliage application, Wagner pot (Table 18, symbol E); type: in vivo, rice flat sedge (Cyperus iria); details: 320 g/ha
How it was run: as §2

southern crabgrass [2] = experiment: Test Example 4: herbicidal effect by soil treatment (Table 19, symbol F); type: in vivo, southern crabgrass (Digitaria ciliaris); details: amount of applied herbicide 320 g/ha
How it was run: (§3)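 Soil-surface application: an emulsion agent diluted with water to the predetermined dose is sprayed uniformly over seeds lying under roughly 1.5 cm of sterilized diluvial soil. Boxes stay in a greenhouse at 25° C. to 30° C. Three weeks later, each species is graded on previously defined criteria.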

green foxtail [3] = experiment: Test Example 4: herbicidal effect by soil treatment (Table 19, symbol G); type: in vivo, green foxtail (Setaria viridis); details: amount of applied herbicide 320 g/ha
How it was run: as §3

barnyard grass [4] = experiment: Test Example 4: herbicidal effect by soil treatment (Table 19, symbol H); type: in vivo, barnyard grass (Echinochloa crus-galli); details: amount of applied herbicide 320 g/ha
How it was run: as §3

wild oat [5] = experiment: Test Example 4: herbicidal effect by soil treatment (Table 19, symbol I); type: in vivo, wild oat (Avena fatua); details: amount of applied herbicide 320 g/ha
How it was run: as §3

blackgrass [6] = experiment: Test Example 4: herbicidal effect by soil treatment (Table 19, symbol J); type: in vivo, blackgrass (Alopecurus myosuroides); details: amount of applied herbicide 320 g/ha
How it was run: as §3

Italian ryegrass [7] = experiment: Test Example 4: herbicidal effect by soil treatment (Table 19, symbol K); type: in vivo, Italian ryegrass (Lolium multiflorum); details: amount of applied herbicide 320 g/ha
How it was run: as §3

windgrass [8] = experiment: Test Example 4: herbicidal effect by soil treatment (Table 19, symbol L); type: in vivo, windgrass (Apera spica-venti); details: amount of applied herbicide 320 g/ha
How it was run: as §3

velvetleaf [9] = experiment: Test Example 4: herbicidal effect by soil treatment (Table 19, symbol M); type: in vivo, velvetleaf (Abutilon theophrasti); details: amount of applied herbicide 320 g/ha
How it was run: as §3

redroot pigweed [10] = experiment: Test Example 4: herbicidal effect by soil treatment (Table 19, symbol N); type: in vivo, redroot pigweed (Amaranthus retroflexus); details: amount of applied herbicide 320 g/ha
How it was run: as §3

lambsquarters [11] = experiment: Test Example 4: herbicidal effect by soil treatment (Table 19, symbol O); type: in vivo, lambsquarters (Chenopodium album); details: amount of applied herbicide 320 g/ha
How it was run: as §3

chickweed [12] = experiment: Test Example 4: herbicidal effect by soil treatment (Table 19, symbol P); type: in vivo, common chickweed (Stellaria media); details: amount of applied herbicide 320 g/ha
How it was run: as §3

false cleavers [13] = experiment: Test Example 4: herbicidal effect by soil treatment (Table 19, symbol Q); type: in vivo, false cleavers (Galium spurium); details: amount of applied herbicide 320 g/ha
How it was run: as §3

persian speedwell [14] = experiment: Test Example 4: herbicidal effect by soil treatment (Table 19, symbol R); type: in vivo, Persian speedwell (Veronica persica); details: amount of applied herbicide 320 g/ha
How it was run: as §3

southern crabgrass [15] = experiment: Test Example 5: herbicidal effect by foliage application, plastic box (Table 20, symbol F); type: in vivo, southern crabgrass (Digitaria ciliaris); details: foliage application, 320 g/ha, three weeks after application
How it was run: (§4)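 Sow seeds spot-wise in sterilized diluvial soil; cover with ~1.5 cm soil. Grow 14 days in greenhouse, 25° C. to 30° C. Spray foliage with emulsion diluted to predetermined amount. Rate effect after 3 weeks.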

green foxtail [16] = experiment: Test Example 5: herbicidal effect by foliage application, plastic box (Table 20, symbol G); type: in vivo, green foxtail (Setaria viridis); details: foliage application, 320 g/ha, three weeks after application
How it was run: as §4

barnyard grass [17] = experiment: Test Example 5: herbicidal effect by foliage application, plastic box (Table 20, symbol H); type: in vivo, barnyard grass (Echinochloa crus-galli); details: foliage application, 320 g/ha, three weeks after application
How it was run: as §4

wild oat [18] = experiment: Test Example 5: herbicidal effect by foliage application, plastic box (Table 20, symbol I); type: in vivo, wild oat (Avena fatua); details: foliage application, 320 g/ha, three weeks after application
How it was run: as §4

blackgrass [19] = experiment: Test Example 5: herbicidal effect by foliage application, plastic box (Table 20, symbol J); type: in vivo, blackgrass (Alopecurus myosuroides); details: foliage application, 320 g/ha, three weeks after application
How it was run: as §4

Italian ryegrass [20] = experiment: Test Example 5: herbicidal effect by foliage application, plastic box (Table 20, symbol K); type: in vivo, Italian ryegrass (Lolium multiflorum); details: foliage application, 320 g/ha, three weeks after application
How it was run: as §4

windgrass [21] = experiment: Test Example 5: herbicidal effect by foliage application, plastic box (Table 20, symbol L); type: in vivo, windgrass (Apera spica-venti); details: foliage application, 320 g/ha, three weeks after application
How it was run: as §4

velvetleaf [22] = experiment: Test Example 5: herbicidal effect by foliage application, plastic box (Table 20, symbol M); type: in vivo, velvetleaf (Abutilon theophrasti); details: foliage application, 320 g/ha, three weeks after application
How it was run: as §4

redroot pigweed [23] = experiment: Test Example 5: herbicidal effect by foliage application, plastic box (Table 20, symbol N); type: in vivo, redroot pigweed (Amaranthus retroflexus); details: foliage application, 320 g/ha, three weeks after application
How it was run: as §4

lambsquarters [24] = experiment: Test Example 5: herbicidal effect by foliage application, plastic box (Table 20, symbol O); type: in vivo, lambsquarters (Chenopodium album); details: foliage application, 320 g/ha, three weeks after application
How it was run: as §4

chickweed [25] = experiment: Test Example 5: herbicidal effect by foliage application, plastic box (Table 20, symbol P); type: in vivo, common chickweed (Stellaria media); details: foliage application, 320 g/ha, three weeks after application
How it was run: as §4

false cleavers [26] = experiment: Test Example 5: herbicidal effect by foliage application, plastic box (Table 20, symbol Q); type: in vivo, false cleavers (Galium spurium); details: foliage application, 320 g/ha, three weeks after application
How it was run: as §4

persian speedwell [27] = experiment: Test Example 5: herbicidal effect by foliage application, plastic box (Table 20, symbol R); type: in vivo, Persian speedwell (Veronica persica); details: foliage application, 320 g/ha, three weeks after application
How it was run: as §4

CCCC(=O)Oc1c(C)nn(C)c(=O)c1-c1c(-c2ccc(OC)c(C)c2)sc2ccccc12 [1-069] was tested, and the “Herbicidal effect on A: late watergrass (grade 0-5)” value (late watergrass) was 3 (Herbicidal rate of 40% or more and less than 70%), the “Herbicidal effect on B: Japanese bulrush (grade 0-5)” value (Japanese bulrush) was 3 (Herbicidal rate of 40% or more and less than 70%) and the “Herbicidal effect on C: oval-leafed pondweed (grade 0-5)” value (oval-leafed pondweed) was 3 (Herbicidal rate of 40% or more and less than 70%). For the same molecule, the “herbicidal effect on H (barnyard grass), rating 0-5” value (barnyard grass [1]) was 3 (Herbicidal rate of 40% or more and less than 70%), the “herbicidal effect on D (Chinese sprangletop), rating 0-5” value (Chinese sprangletop) was 0 (Herbicidal rate of 5% or less (almost no effect)) and the “herbicidal effect on E (rice flat sedge), rating 0-5” value (rice flat sedge) was 5 (Herbicidal rate of 90% or more (almost completely withered)). The “herbicidal effect rating, F: southern crabgrass” value (southern crabgrass [2]) was 0 (Herbicidal rate of 5% or less (almost no effect)), the “herbicidal effect rating, G: green foxtail” value (green foxtail [3]) was 0 (Herbicidal rate of 5% or less (almost no effect)) and the “herbicidal effect rating, H: barnyard grass” value (barnyard grass [4]) was 0 (Herbicidal rate of 5% or less (almost no effect)). For the same molecule, the “herbicidal effect rating, I: wild oat” value (wild oat [5]) was 0 (Herbicidal rate of 5% or less (almost no effect)), the “herbicidal effect rating, J: blackgrass” value (blackgrass [6]) was 0 (Herbicidal rate of 5% or less (almost no effect)) and the “herbicidal effect rating, K: Italian ryegrass” value (Italian ryegrass [7]) was 0 (Herbicidal rate of 5% or less (almost no effect)). The “herbicidal effect rating, L: windgrass” value (windgrass [8]) was 0 (Herbicidal rate of 5% or less (almost no effect)), the “herbicidal effect rating, M: velvetleaf” value (velvetleaf [9]) was 0 (Herbicidal rate of 5% or less (almost no effect)) and the “herbicidal effect rating, N: redroot pigweed” value (redroot pigweed [10]) was 0 (Herbicidal rate of 5% or less (almost no effect)). For the same molecule, the “herbicidal effect rating, O: lambsquarters” value (lambsquarters [11]) was 0 (Herbicidal rate of 5% or less (almost no effect)), the “herbicidal effect rating, P: chickweed” value (chickweed [12]) was 3 (Herbicidal rate of 40% or more and less than 70%) and the “herbicidal effect rating, Q: false cleavers” value (false cleavers [13]) was 0 (Herbicidal rate of 5% or less (almost no effect)). For the same molecule, the “herbicidal effect rating, R: persian speedwell” value (persian speedwell [14]) was 4 (Herbicidal rate of 70% or more and less than 90%), the “herbicidal effect grade, F: southern crabgrass” value (southern crabgrass [15]) was 0 (Herbicidal rate of 5% or less (almost no effect)) and the “herbicidal effect grade, G: green foxtail” value (green foxtail [16]) was 0 (Herbicidal rate of 5% or less (almost no effect)). The “herbicidal effect grade, H: barnyard grass” value (barnyard grass [17]) was 0 (Herbicidal rate of 5% or less (almost no effect)), the “herbicidal effect grade, I: wild oat” value (wild oat [18]) was 1 (Herbicidal rate of 5% or more and less than 20%) and the “herbicidal effect grade, J: blackgrass” value (blackgrass [19]) was 0 (Herbicidal rate of 5% or less (almost no effect)). The “herbicidal effect grade, K: Italian ryegrass” value (Italian ryegrass [20]) was 3 (Herbicidal rate of 40% or more and less than 70%), the “herbicidal effect grade, L: windgrass” value (windgrass [21]) was 0 (Herbicidal rate of 5% or less (almost no effect)) and the “herbicidal effect grade, M: velvetleaf” value (velvetleaf [22]) was 5 (Herbicidal rate of 90% or more (almost completely withered)). For the same molecule, the “herbicidal effect grade, N: redroot pigweed” value (redroot pigweed [23]) was 5 (Herbicidal rate of 90% or more (almost completely withered)), the “herbicidal effect grade, O: lambsquarters” value (lambsquarters [24]) was 0 (Herbicidal rate of 5% or less (almost no effect)) and the “herbicidal effect grade, P: chickweed” value (chickweed [25]) was 4 (Herbicidal rate of 70% or more and less than 90%). The “herbicidal effect grade, Q: false cleavers” value (false cleavers [26]) was 0 (Herbicidal rate of 5% or less (almost no effect)) and the “herbicidal effect grade, R: persian speedwell” value (persian speedwell [27]) was 4 (Herbicidal rate of 70% or more and less than 90%).
